“Also recorded” adds a separate entry of the source.
Assays:
Assay type in all cases: cell-based
[1] = system: PDGFRA; assay: PDGFRA expression in human islets exposed to 5-aza-C
From the text: (§1) The CpG tool of the UCSC genome browser (v257) identifies two CpG islands upstream of the translational start site of the mouse Pdgfra gene, spanning the regions −9040/−9610 and −5662/−5054 (FIG. 20). The more 3′ promoter-proximal CpG island at −5662/−5054 aligns well with regions associated with histone H3K4me1 and H3K4me3, marks of enhancers or cis-regulatory elements, with lesser overlap in the more 5′ CpG island at −9040/−9610. There are also two CpG islands within the −3,600 to +118 region of the human PDGFRA promoter-proximal region, and evidence exists that DNA methylation within the most 3′ CpG island regulates PDGFRA expression (Toepoel et al 2008). […] These findings indicate that DNA methylation and associated chromatin remodeling regulates expression of islet β-cell PDGFRA.

[2] = system: PDGFRA; assay: PDGFRA expression in mouse islets exposed to 5-aza-C
From the text: as §1

[3] = system: EZH2; assay: EZH2/EZH1 mRNA in cultured human islets (real-time RT-PCR); settings: juvenile human islets, PDGF-AA 50 ng/ml with Sunitinib 2 μM or U0126 10 μM, 2 days
Description: Total RNA from freshly isolated or cultured islets after indicated treatments were purified using the Absolutely RNA miniprep purification kit (Stratagene) according to the manufacturer's instructions. RNA concentration was measured with a RiboGreen RNA quantification assay (Invitrogen). One-step quantitative RT-PCR was performed and analysed using an ABI Prism 7300 detection system (Applied Biosystems) with TaqMan one-step RTPCR Master Mix Reagents and appropriate amounts (10-100 ng) of islet total RNA as the template. We calculated the ratio of mRNA for the gene of interest to the amount of internal control mRNA of peptidylprolyl isomerase A (cyclophilin A, PPIA), and then normalized the ratio for each gene to its median. For islet studies, human islets were isolated either at Pittsburgh University Medical Center or the University of Alabama, Birmingham. Eight independent human islet preparations from juvenile donors at the age of 8 months, 1.0, 1.5, 2, 3, 4, 5 and 6 years, and three adult islet preparations from donors at the age of 39, 48 and 56 years were used in this study. After isolation, fresh islets were hand-picked and transferred to RPMI-1640 medium supplemented with 0.5% FBS, 0.2% BSA and 2% penicillin/streptomycin for an overnight recovery before experiments. […] To detect in vitro human islet β-cell proliferation stimulated by PDGF-AA, human islets were exposed to 50 μM BrdU for 24 h. Afterwards, human islets were processed in a similar way as in mouse islet studies for immunostaining of insulin, glucagon, PDX1 and BrdU. β-Cell proliferation rate was determined by quantifying percentage of insulin+ cells with BrdU+. More than 50 islets per group were counted for determining cultured human islet β-cell proliferation rate.

[4] = system: human islet β-cells; assay: In vitro human islet β-cell proliferation (BrdU incorporation); settings: juvenile human islets, PDGF-AA 50 ng/ml with Sunitinib 2 μM or U0126 10 μM
From the text: For islet studies, human islets were isolated either at Pittsburgh University Medical Center or the University of Alabama, Birmingham. Eight independent human islet preparations from juvenile donors at the age of 8 months, 1.0, 1.5, 2, 3, 4, 5 and 6 years, and three adult islet preparations from donors at the age of 39, 48 and 56 years were used in this study. After isolation, fresh islets were hand-picked and transferred to RPMI-1640 medium supplemented with 0.5% FBS, 0.2% BSA and 2% penicillin/streptomycin for an overnight recovery before experiments. […] To detect in vitro human islet β-cell proliferation stimulated by PDGF-AA, human islets were exposed to 50 μM BrdU for 24 h. Afterwards, human islets were processed in a similar way as in mouse islet studies for immunostaining of insulin, glucagon, PDX1 and BrdU. β-Cell proliferation rate was determined by quantifying percentage of insulin+ cells with BrdU+. More than 50 islets per group were counted for determining cultured human islet β-cell proliferation rate.

[5] = system: Ezh2; assay: Ezh2/Ezh1 expression in cultured mouse islets (real-time RT-PCR, western blot); settings: 2 days; for effect of inhibitor on PDGF-AA-induced Ezh2 expression: 3 week-old mouse islets, PDGF-AA plus inhibitor; for Ezh2 mRNA levels after mitogen exposure: juvenile mouse islets exposed to insulin or prolactin
Description: Mouse pancreatic islets were purified as described in Chen et al. (2009) Genes Dev. 23, 975-985 and used immediately for assays described in the text. To study Ezh2 induction in cultured islets exposed to mitogens, freshly isolated islets from 2-3-week old, and 7-12-month old C57BL/6 mice were recovered and equilibrated overnight at 37° C., 5% CO2 in RPMI-1640 medium supplemented with 0.5% fetal bovine serum (FBS), 0.2% bovine albumin (BSA) and 2% penicillin/streptomycin. Afterwards, islets were distributed into microplates or dishes, and treated with recombinant human PDGF-AA, prolactin or insulin (Sigma), with or without addition of pharmacological inhibitors, including Sunitinib (Selleck), […]0126 (Sigma), LY294002 (Sigma) or U-73122 (Sigma) at the indicated concentrations. Two days later, islets were harvested for RNA or protein extraction for real-time RTPCR or western blot analyses. To detect phosphorylation of Pdgfr-α by western blot, islets were exposed to PDGF-AA (with or without indicated pharmacological inhibitors) for 90 min before islet harvesting and protein extraction. To detect in vitro islet β-cell proliferation stimulated by PDGF-AA, a final concentration of 50 μM BrdU was introduced into each culture dish 24 h before harvest, followed by standard histological processing. Immunostaining of BrdU and insulin was performed on processed islets, and β-cell proliferation rate was determined by quantifying percentage of insulin+ cells with BrdU+. Culture experiments of human islets were performed using a similar procedure described later. Total RNA from freshly isolated or cultured islets after indicated treatments were purified using the Absolutely RNA miniprep purification kit (Stratagene) according to the manufacturer's instructions. RNA concentration was measured with a RiboGreen RNA quantification assay (Invitrogen). One-step quantitative RT-PCR was performed and analysed using an ABI Prism 7300 detection system (Applied Biosystems) with TaqMan one-step RTPCR Master Mix Reagents and appropriate amounts (10-100 ng) of islet total RNA as the template. We calculated the ratio of mRNA for the gene of interest to the amount of internal control mRNA of peptidylprolyl isomerase A (cyclophilin A, PPIA), and then normalized the ratio for each gene to its median. For western blots, total islet protein was prepared from freshly isolated or cultured islets after indicated treatments as described in Chen et al. (2009) Genes Dev. 23, 975-985. Equal amounts of protein were resolved on SDS-PAGE and transferred to polyvinylidine fluoride membranes (Amersham Pharmacia) for immunoblotting with specific antibodies, including rabbit polyclonal anti-human Ezh2 (1:1,000, Millipore), rabbit polyclonal anti-phospho-PDGFR-α ([…]) (1:1,000, Santa Cruz Biotechnologies), rabbit monoclonal anti-PDGFR-α (1:1,000, Cell Signaling), mouse monoclonal anti-β-actin (1:4,000, Sigma), rabbit monoclonal anti-Akt (1:1,500, Cell Signaling), rabbit monoclonal anti-phospho-Ark ([…]) (1:1,000, Cell Signaling), rabbit monoclonal anti-p44/42 MAPK (Erk1/2) (1:1,500, Cell Signaling), rabbit monoclonal anti-phospho-p44/42 MAPK (Erk1/2) […]) (1:1,000, Cell Signaling), rabbit monoclonal anti-PLCγ1 (1:1,000, Cell Signaling) and rabbit monoclonal anti-phospho-PLCγ1 ([…]) (1:1,000, Cell Signaling). Signal was visualized using ECL detection (Amersham Pharmacia) on Kodak film after further incubation with HRP-conjugated secondary antibodies. For phospho-PDGFR-α ([…]) and PDGFR-α detection, signal was amplified by incubating the membrane with biotinylated anti-rabbit-IgG (1:2,000), followed with an incubation with HRP-avidin (1:2,000, Vector Laboratories) and then ECL visualization.

[6] = system: mouse islet β-cells; assay: In vitro mouse islet β-cell proliferation (BrdU incorporation); settings: 3 week-old mouse islets, PDGF-AA 50 ng/ml plus inhibitor (Sunitinib 2 μM, Vargatef 5 μM), 2 days
Description: Mouse pancreatic islets were purified as described in Chen et al. (2009) Genes Dev. 23, 975-985 and used immediately for assays described in the text. To study Ezh2 induction in cultured islets exposed to mitogens, freshly isolated islets from 2-3-week old, and 7-12-month old C57BL/6 mice were recovered and equilibrated overnight at 37° C., 5% CO2 in RPMI-1640 medium supplemented with 0.5% fetal bovine serum (FBS), 0.2% bovine albumin (BSA) and 2% penicillin/streptomycin. Afterwards, islets were distributed into microplates or dishes, and treated with recombinant human PDGF-AA, prolactin or insulin (Sigma), with or without addition of pharmacological inhibitors, including Sunitinib (Selleck), […]0126 (Sigma), LY294002 (Sigma) or U-73122 (Sigma) at the indicated concentrations. Two days later, islets were harvested for RNA or protein extraction for real-time RTPCR or western blot analyses. To detect phosphorylation of Pdgfr-α by western blot, islets were exposed to PDGF-AA (with or without indicated pharmacological inhibitors) for 90 min before islet harvesting and protein extraction. To detect in vitro islet β-cell proliferation stimulated by PDGF-AA, a final concentration of 50 μM BrdU was introduced into each culture dish 24 h before harvest, followed by standard histological processing. Immunostaining of BrdU and insulin was performed on processed islets, and β-cell proliferation rate was determined by quantifying percentage of insulin+ cells with BrdU+. […] For measuring pancreatic β-cell mass or BrdU by morphometry, three to six mice for each group were analysed. At least five sections separated by more than 300 μm (pancreases) or 50 μm (cultured islets) were immunostained and assessed for each sample. Images were analysed with an ImagePro program by observers blinded to genotype, and pancreatic β-cell mass and percentage of BrdU+β-cells were calculated as described in Chen et al. Polycomb protein Ezh2 regulates pancreatic 6-cell Ink4a/Arf expression and regeneration in diabetes mellitus. […]

## Nc1ncn([C@@H]2O[C@H](CO)[C@@H](O)[C@H]2O)c(=O)n1 [5-aza-C, 5-aza-cytidine]
[1]
  derepression of PDGFRA: dosage-dependent derepression; also recorded: dosage-dependent de-repression
[2]
  derepression of PDGFRA: dosage-dependent derepression; also recorded: dosage-dependent de-repression

## N#CC(=C(/N)Sc1ccccc1N)/C(C#N)=C(\N)Sc1ccccc1N [U0126, reference compound]
[3]
  effect of inhibitor on PDGF-AA-increased EZH2 mRNA: blocked
[4]
  effect of inhibitor on PDGF-AA-increased β-cell BrdU incorporation: eliminated
[5]
  effect of inhibitor on PDGF-AA-induced Ezh2 expression: blocked; also recorded: attenuates
[6]
  effect of inhibitor on PDGF-AA-increased β-cell BrdU incorporation: blocked; also recorded: attenuates

## COC(=O)c1ccc2c(c1)NC(=O)/C2=C(\Nc1ccc(N(C)C(=O)CN2CCN(C)CC2)cc1)c1ccccc1 [Vargatef, reference compound]
[5]
  effect of inhibitor on PDGF-AA-induced Ezh2 expression: eliminated
[6]
  effect of inhibitor on PDGF-AA-increased β-cell BrdU incorporation: eliminated

## insulin
[5]
  Ezh2 mRNA levels after mitogen exposure: did not detectably alter
[5]; listed as Insulin
  Ezh2 mRNA levels after mitogen exposure: did not induce
